Measurements reported in ChEMBL document CHEMBL4118154, “Discovery of evocalcet, a next-generation calcium-sensing receptor agonist for the treatment of hyperparathyroidism” (Bioorg Med Chem Lett, 2018).

Legend:
CYP2D6 = CYP2D6 (Homo sapiens, UniProt P10635); assay: Inhibition of CYP2D6 (unknown origin); assay type: ADME
[1] = Total clearance in rat at 0.3 mg/kg, iv; assay type: ADME, organism-based; details: in vivo
CYP2E1 = CYP2E1 (Homo sapiens, UniProt P05181); assay: Inhibition of CYP2E1 (unknown origin); assay type: ADME
[2] = Half life in monkey at 1 mg/kg, po; assay type: ADME, organism-based, Macaca mulatta; details: rhesus monkey, in vivo
[3] = Tmax in monkey at 1 mg/kg, po; assay type: ADME, organism-based, Macaca mulatta; details: rhesus monkey, in vivo
[4] = Initial plasma concentration in rat at 0.3 mg/kg, iv; assay type: ADME, organism-based
CYP2C9 = CYP2C9 (Homo sapiens, UniProt P11712); assay: Inhibition of CYP2C9 (unknown origin); assay type: ADME
[5] = Oral bioavailability in monkey at 1 mg/kg; assay type: ADME, organism-based, Macaca mulatta; details: rhesus monkey, in vivo
CYP2B6 = target: T1, CYP2B6 (Homo sapiens, UniProt P20813); assay: Inhibition of CYP2B6 (unknown origin); assay type: ADME
T1 sequence (P20813 whole entry): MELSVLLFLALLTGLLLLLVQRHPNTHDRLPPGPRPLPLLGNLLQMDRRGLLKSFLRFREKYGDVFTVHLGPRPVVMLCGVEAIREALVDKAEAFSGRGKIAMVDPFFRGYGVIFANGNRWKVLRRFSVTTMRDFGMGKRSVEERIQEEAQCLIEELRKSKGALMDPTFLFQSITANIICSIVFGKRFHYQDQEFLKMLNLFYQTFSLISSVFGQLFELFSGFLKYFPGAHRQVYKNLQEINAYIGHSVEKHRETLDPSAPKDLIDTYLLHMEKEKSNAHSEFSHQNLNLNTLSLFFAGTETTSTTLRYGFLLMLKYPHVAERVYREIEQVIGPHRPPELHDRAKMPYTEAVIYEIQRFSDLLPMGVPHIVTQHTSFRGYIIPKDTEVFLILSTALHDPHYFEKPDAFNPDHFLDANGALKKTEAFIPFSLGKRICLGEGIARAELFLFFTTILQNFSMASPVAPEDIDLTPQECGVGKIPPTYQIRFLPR

[6] = Cmax in rat at 1 mg/kg, po; assay type: ADME, organism-based; set-up: dose 1 mg/kg, route oral; details: in vivo
[7] = Intrinsic clearance in rat liver microsomes assessed per protein; assay type: ADME, microsome; details: read-out: CLH
[8] = AUC (0 to infinity) in rat at 0.3 mg/kg, iv; assay type: ADME, organism-based; set-up: dose 0.3 mg/kg, route intravenous, time infinity; details: in vivo
CYP1A2 = target: T2, CYP1A2 (Homo sapiens, UniProt P05177); assay: Inhibition of CYP1A2 (unknown origin); assay type: ADME
T2 sequence (P05177 whole entry): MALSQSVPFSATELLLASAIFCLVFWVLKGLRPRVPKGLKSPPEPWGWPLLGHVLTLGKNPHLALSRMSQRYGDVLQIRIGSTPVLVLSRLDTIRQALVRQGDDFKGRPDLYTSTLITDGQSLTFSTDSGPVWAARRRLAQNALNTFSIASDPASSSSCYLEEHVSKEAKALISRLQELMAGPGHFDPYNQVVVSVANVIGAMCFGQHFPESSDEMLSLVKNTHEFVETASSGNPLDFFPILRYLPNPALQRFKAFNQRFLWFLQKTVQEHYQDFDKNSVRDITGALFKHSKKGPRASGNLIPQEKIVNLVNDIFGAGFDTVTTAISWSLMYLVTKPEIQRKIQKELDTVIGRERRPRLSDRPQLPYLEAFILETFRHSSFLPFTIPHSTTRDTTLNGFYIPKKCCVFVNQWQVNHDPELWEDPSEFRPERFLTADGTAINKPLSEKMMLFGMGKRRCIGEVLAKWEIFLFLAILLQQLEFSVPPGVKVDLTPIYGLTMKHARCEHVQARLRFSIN

CYP2A6 = target: T3, CYP2A6 (Homo sapiens, UniProt P11509); assay: Inhibition of CYP2A6 (unknown origin); assay type: ADME
T3 sequence (P11509 whole entry): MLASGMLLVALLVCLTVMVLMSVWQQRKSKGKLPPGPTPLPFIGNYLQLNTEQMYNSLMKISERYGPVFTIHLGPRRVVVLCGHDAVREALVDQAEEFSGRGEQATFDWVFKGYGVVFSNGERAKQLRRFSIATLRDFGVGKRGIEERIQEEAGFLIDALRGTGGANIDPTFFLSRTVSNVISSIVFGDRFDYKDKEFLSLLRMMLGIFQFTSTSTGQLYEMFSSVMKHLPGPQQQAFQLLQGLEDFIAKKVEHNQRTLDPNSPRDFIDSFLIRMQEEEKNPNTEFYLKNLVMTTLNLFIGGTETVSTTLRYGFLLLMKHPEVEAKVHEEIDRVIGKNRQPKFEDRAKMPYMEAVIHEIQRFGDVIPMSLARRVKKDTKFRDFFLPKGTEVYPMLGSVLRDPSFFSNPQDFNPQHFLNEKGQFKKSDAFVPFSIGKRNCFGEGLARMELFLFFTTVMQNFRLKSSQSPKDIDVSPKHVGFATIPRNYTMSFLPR

[9] = Half life in monkey at 0.3 mg/kg, iv; assay type: ADME, organism-based, Macaca mulatta; details: rhesus monkey, in vivo
[10] = Volume of distribution at steady state in monkey at 0.3 mg/kg, iv; assay type: ADME, organism-based, Macaca mulatta; details: rhesus monkey, in vivo, read-out: Vdss
[11] = AUC (0 to infinity) in monkey at 1 mg/kg, po; assay type: ADME, organism-based, Macaca mulatta; set-up: dose 1 mg/kg, time infinity, route oral; details: rhesus monkey, in vivo
[12] = AUC (0 to infinity) in rat at 1 mg/kg, po; assay type: ADME, organism-based; set-up: dose 1 mg/kg, route oral, time infinity; details: in vivo

Chain of CYP2C9 (P11712 whole entry): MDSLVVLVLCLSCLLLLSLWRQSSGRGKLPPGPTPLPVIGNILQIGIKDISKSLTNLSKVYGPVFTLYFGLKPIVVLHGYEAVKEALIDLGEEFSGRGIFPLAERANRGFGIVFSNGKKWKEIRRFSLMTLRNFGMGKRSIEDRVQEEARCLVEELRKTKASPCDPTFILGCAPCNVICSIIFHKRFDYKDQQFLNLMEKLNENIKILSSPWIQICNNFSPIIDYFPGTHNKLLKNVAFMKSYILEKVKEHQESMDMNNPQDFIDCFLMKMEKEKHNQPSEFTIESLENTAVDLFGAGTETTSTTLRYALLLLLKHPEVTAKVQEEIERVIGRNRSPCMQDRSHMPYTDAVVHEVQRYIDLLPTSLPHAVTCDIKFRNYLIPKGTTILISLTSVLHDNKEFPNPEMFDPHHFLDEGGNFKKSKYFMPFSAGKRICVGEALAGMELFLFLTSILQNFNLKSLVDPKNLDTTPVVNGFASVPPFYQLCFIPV
Chain of CYP2E1 (P05181 whole entry): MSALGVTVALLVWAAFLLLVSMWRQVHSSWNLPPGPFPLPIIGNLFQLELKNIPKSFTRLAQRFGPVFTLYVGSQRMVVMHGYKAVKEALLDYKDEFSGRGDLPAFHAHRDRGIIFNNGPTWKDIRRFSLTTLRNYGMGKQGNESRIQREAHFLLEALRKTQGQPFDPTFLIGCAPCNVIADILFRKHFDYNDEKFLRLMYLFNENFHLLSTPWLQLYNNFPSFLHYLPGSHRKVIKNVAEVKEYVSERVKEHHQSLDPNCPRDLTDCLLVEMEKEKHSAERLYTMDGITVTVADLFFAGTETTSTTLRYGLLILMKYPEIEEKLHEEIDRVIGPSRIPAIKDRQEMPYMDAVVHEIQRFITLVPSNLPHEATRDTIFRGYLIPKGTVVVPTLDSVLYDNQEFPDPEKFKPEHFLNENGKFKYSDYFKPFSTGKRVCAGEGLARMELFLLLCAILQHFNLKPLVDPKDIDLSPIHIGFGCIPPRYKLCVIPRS
Chain of CYP2D6 (P10635 whole entry): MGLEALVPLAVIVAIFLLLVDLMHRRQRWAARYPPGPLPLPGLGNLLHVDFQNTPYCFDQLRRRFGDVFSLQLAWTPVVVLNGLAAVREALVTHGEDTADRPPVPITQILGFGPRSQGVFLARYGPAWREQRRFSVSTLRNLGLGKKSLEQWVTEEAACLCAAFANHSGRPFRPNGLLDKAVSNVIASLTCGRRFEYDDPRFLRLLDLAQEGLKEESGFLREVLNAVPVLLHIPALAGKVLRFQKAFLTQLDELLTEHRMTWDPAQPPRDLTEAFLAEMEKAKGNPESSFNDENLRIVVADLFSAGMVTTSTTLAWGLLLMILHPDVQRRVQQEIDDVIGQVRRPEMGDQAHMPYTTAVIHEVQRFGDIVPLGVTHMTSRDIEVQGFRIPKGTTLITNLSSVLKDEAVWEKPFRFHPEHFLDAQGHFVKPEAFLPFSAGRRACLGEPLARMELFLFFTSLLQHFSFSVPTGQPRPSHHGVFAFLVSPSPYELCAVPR

C[C@@H](N[C@H]1CCN(c2ccc(CC(=O)O)cc2)C1)c1cccc2ccccc12.Cl.Cl
IC50 (CYP2D6): > 50 µM | clearance [1]: 1.67 mL/min/kg | IC50 (CYP2E1): > 50 µM | half-life [2]: 8.94 h | Tmax [3]: 1.38 h | C0 [4]: 1080 ng/mL | IC50 (CYP2C9): > 50 µM | bioavailability [5]: 55.8% | IC50 (CYP2B6): > 50 µM | Cmax [6]: 2190 ng/mL | microsomal CLint [7]: 34 µL/min/mg | AUC(0-inf) [8]: 3010 ng·h/mL | IC50 (CYP1A2): > 50 µM | IC50 (CYP2A6): > 50 µM | half-life [9]: 10.2 h | Vd [10]: 0.716 L/kg | AUC(0-inf) [11]: 1660 ng·h/mL | AUC(0-inf) [12]: 8440 ng·h/mL
